According to ChEMBL document CHEMBL1201862, “PubChem BioAssay data set” (2004):
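Protocol summary: plate cells (96-well), add compound at 5 concentrations, incubate 48 h, interpolate endpoints linearly. GI50 marks 50% less growth.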 The source made the active and inactive calls. Rule as the data show it: active = GI50 up to about 1.1 µM and inactive = higher.

What was measured:
Test in all cases: NCI tumour cell line growth inhibition, 48 h
A549 = tested on: A549
ACHN = tested on: ACHN
CAKI-1 = tested on: CAKI-1
CCRF-CEM = tested on: CCRF-CEM
EKVX = tested on: EKVX
KM12 = tested on: KM12
Malme-3M = tested on: Malme-3M
NCI-H226 = tested on: NCI-H226
NCI-H522 = tested on: NCI-H522
SF-268 = tested on: SF-268
SF-539 = tested on: SF-539
SK-OV-3 = tested on: SK-OV-3
SN12C = tested on: SN12C
SNB-19 = tested on: SNB-19
SNB-75 = tested on: SNB-75
SR = tested on: SR
U-251 = tested on: U-251
UACC-257 = tested on: UACC-257
UO-31 = tested on: UO-31
RXF 393 = tested on: RXF 393

SMILES	GI50 (A549)	GI50 (ACHN)	GI50 (CAKI-1)	GI50 (CCRF-CEM)	GI50 (EKVX)	GI50 (KM12)	GI50 (Malme-3M)	GI50 (NCI-H226)	GI50 (NCI-H522)	GI50 (SF-268)	GI50 (SF-539)	GI50 (SK-OV-3)	GI50 (SN12C)	GI50 (SNB-19)	GI50 (SNB-75)	GI50 (SR)	GI50 (U-251)	GI50 (UACC-257)	GI50 (UO-31)	GI50 (RXF 393)
CCOC(=O)C(=O)Nc1cccc(C)c1C	> 100 µM (inactive)	> 100 µM (inactive)	> 100 µM (inactive)	> 100 µM (inactive)	> 100 µM (inactive)	> 100 µM (inactive)	> 100 µM (inactive)	> 100 µM (inactive)	> 100 µM (inactive)	> 100 µM (inactive)	> 100 µM (inactive)	> 100 µM (inactive)	> 100 µM (inactive)	> 100 µM (inactive)	> 100 µM (inactive)	> 100 µM (inactive)	> 100 µM (inactive)	> 100 µM (inactive)	> 100 µM (inactive)	–
COC[C@@H](Cc1ccc(OC)c(OC)c1)[C@@H](COC)Cc1ccc(OC)c(OC)c1	> 100 µM (inactive)	> 100 µM (inactive)	–	56.5 µM (inactive)	> 100 µM (inactive)	> 100 µM (inactive)	> 100 µM (inactive)	–	64.1 µM (inactive)	> 100 µM (inactive)	> 100 µM (inactive)	> 100 µM (inactive)	> 100 µM (inactive)	> 100 µM (inactive)	> 100 µM (inactive)	95.3 µM (inactive)	> 100 µM (inactive)	> 100 µM (inactive)	> 100 µM (inactive)	> 100 µM (inactive)
CCOC(=O)/C(=C/c1cn(C(C)=O)c2ccccc12)P(=O)(OC)OC	33.2 µM (inactive)	31.4 µM (inactive)	31.9 µM (inactive)	30 µM (inactive)	–	–	–	–	30.5 µM (inactive)	–	–	25.1 µM (inactive)	31.6 µM (inactive)	–	16 µM (inactive)	24.8 µM (inactive)	30.4 µM (inactive)	19.1 µM (inactive)	–	–
CN(C)/N=N/c1ccc([N+](=O)[O-])cc1C(N)=O	> 100 µM (inactive)	–	> 100 µM (inactive)	> 100 µM (inactive)	> 71.3 µM (inactive)	> 100 µM (inactive)	> 100 µM (inactive)	> 100 µM (inactive)	> 92.7 µM (inactive)	> 100 µM (inactive)	> 100 µM (inactive)	> 100 µM (inactive)	> 100 µM (inactive)	> 66.5 µM (inactive)	> 100 µM (inactive)	–	> 100 µM (inactive)	> 100 µM (inactive)	> 82 µM (inactive)	> 100 µM (inactive)
CCCCNC1=C2C(=O)NN=C2CO1	> 100 µM (inactive)	> 100 µM (inactive)	> 100 µM (inactive)	> 100 µM (inactive)	> 100 µM (inactive)	> 100 µM (inactive)	–	> 100 µM (inactive)	> 100 µM (inactive)	> 100 µM (inactive)	> 100 µM (inactive)	> 100 µM (inactive)	> 100 µM (inactive)	> 100 µM (inactive)	> 100 µM (inactive)	> 100 µM (inactive)	> 100 µM (inactive)	> 100 µM (inactive)	> 100 µM (inactive)	> 100 µM (inactive)
CCc1c(-c2ccccc2)[nH]c2ccccc2c1=O	13.4 µM (inactive)	36.7 µM (inactive)	19.8 µM (inactive)	72.4 µM (inactive)	81.1 µM (inactive)	16.4 µM (inactive)	72.4 µM (inactive)	27.7 µM (inactive)	–	80.7 µM (inactive)	50.5 µM (inactive)	28.1 µM (inactive)	> 100 µM (inactive)	> 100 µM (inactive)	–	49.1 µM (inactive)	> 100 µM (inactive)	64.7 µM (inactive)	0.0412 µM (active)	27.1 µM (inactive)
Cc1ccc(S(=O)(=O)N2CCCSCC2)cc1	> 100 µM (inactive)	> 100 µM (inactive)	–	> 100 µM (inactive)	–	> 100 µM (inactive)	–	> 100 µM (inactive)	> 100 µM (inactive)	> 100 µM (inactive)	–	> 100 µM (inactive)	> 100 µM (inactive)	> 100 µM (inactive)	61.7 µM (inactive)	> 100 µM (inactive)	> 100 µM (inactive)	> 100 µM (inactive)	35.2 µM (inactive)	62.7 µM (inactive)
CCCn1cc2c3c(cccc31)C1C=C(C)CN(C)C1C2 (configuration not stated)	34.5 µM (inactive)	–	11.8 µM (inactive)	3.67 µM (inactive)	18 µM (inactive)	24.2 µM (inactive)	18.7 µM (inactive)	12.8 µM (inactive)	20.7 µM (inactive)	29 µM (inactive)	25.6 µM (inactive)	37.3 µM (inactive)	27.5 µM (inactive)	27 µM (inactive)	12 µM (inactive)	–	19 µM (inactive)	7.69 µM (inactive)	9.71 µM (inactive)	18.5 µM (inactive)
CCP(=O)(CC)C(Cl)(Cl)C(O)C(C)(C)C (configuration not stated)	> 100 µM (inactive)	> 100 µM (inactive)	> 100 µM (inactive)	> 100 µM (inactive)	–	–	–	> 100 µM (inactive)	> 100 µM (inactive)	–	–	> 100 µM (inactive)	> 100 µM (inactive)	> 100 µM (inactive)	> 100 µM (inactive)	> 100 µM (inactive)	> 100 µM (inactive)	> 100 µM (inactive)	> 100 µM (inactive)	–
O=C(NNC(=O)c1nsc2ccccc12)c1ccc(Cl)cc1	21.7 µM (inactive)	> 100 µM (inactive)	–	19 µM (inactive)	18.2 µM (inactive)	27.2 µM (inactive)	–	–	–	17.7 µM (inactive)	17 µM (inactive)	–	17.6 µM (inactive)	19.1 µM (inactive)	2.93 µM (inactive)	25.1 µM (inactive)	16.7 µM (inactive)	21.2 µM (inactive)	18.9 µM (inactive)	14 µM (inactive)
O=C(O)/C(=C\c1ccncc1)c1cccc2ccccc12	90.6 µM (inactive)	–	–	> 100 µM (inactive)	> 100 µM (inactive)	> 100 µM (inactive)	> 100 µM (inactive)	–	> 100 µM (inactive)	> 100 µM (inactive)	> 100 µM (inactive)	> 100 µM (inactive)	44.1 µM (inactive)	> 100 µM (inactive)	> 100 µM (inactive)	> 100 µM (inactive)	> 100 µM (inactive)	0.145 µM (active)	–	> 100 µM (inactive)
OCc1cn(C(c2ccccc2)(c2ccccc2)c2ccccc2)cn1	> 100 µM (inactive)	72.4 µM (inactive)	91.6 µM (inactive)	> 100 µM (inactive)	–	–	–	> 100 µM (inactive)	> 100 µM (inactive)	–	–	66.4 µM (inactive)	> 100 µM (inactive)	> 100 µM (inactive)	22.2 µM (inactive)	> 100 µM (inactive)	50.9 µM (inactive)	> 100 µM (inactive)	> 100 µM (inactive)	–
CCCCCCCCCCCC1=NCCN1	90.6 µM (inactive)	> 100 µM (inactive)	–	22.9 µM (inactive)	–	63.8 µM (inactive)	–	> 100 µM (inactive)	26.5 µM (inactive)	> 100 µM (inactive)	–	> 100 µM (inactive)	77.6 µM (inactive)	> 100 µM (inactive)	32 µM (inactive)	19.9 µM (inactive)	49.9 µM (inactive)	> 100 µM (inactive)	32.1 µM (inactive)	> 100 µM (inactive)
